Data reported in ChEMBL document CHEMBL1137116, “Synthesis and structure-activity relationships of 1,5-diazaanthraquinones as antitumour compounds” (Bioorg Med Chem Lett, 2004).

Columns and labels:
A549 = test: Cytotoxic activity against A-549 (Human lung carcinoma) cell line; format: functional, cell-based
HT-29 = test: Cytotoxic activity of compound against HT-29 (Human colon carcinoma) cell line; format: functional, cell-based
[1] = Cytotoxic activity of compound against MEL-28 (Human melanoma) cell line; format: functional; conditions: SK-MEL-28

Compound `Cc1cc[n+](N(C)C)c2c1C(=O)c1nccc(Cl)c1C2=O` has an IC50 (A549) of 330 nM, an IC50 (HT-29) of 1930 nM and an IC50 [1] of 330 nM.

Work on `O=C1c2cccnc2C(=O)c2cccnc21` yielded an IC50 (A549) of 4800 nM, an IC50 (HT-29) of 4800 nM and an IC50 [1] of 4800 nM.

Compound `Cc1ccnc2c1C(=O)c1c(C)ccnc1C2=O` has an IC50 (A549) of 2100 nM, an IC50 (HT-29) of 2100 nM and an IC50 [1] of 2100 nM.

For `CCc1c(C)cnc2c1C(=O)c1c(ncc(C)c1CC)C2=O`, the IC50 (A549) was 8500 nM, the IC50 (HT-29) was 8500 nM and the IC50 [1] was 8500 nM.

`O=C1c2nccc(-c3ccccc3[N+](=O)[O-])c2C(=O)c2nccc(O)c21` gave an IC50 (A549) of 7200 nM, an IC50 (HT-29) of 7200 nM and an IC50 [1] of 7200 nM.

`CCc1cnc2c(c1)C(=O)c1ncc(CC)cc1C2=O` showed an IC50 (A549) of 190 nM, an IC50 (HT-29) of 1880 nM and an IC50 [1] of 380 nM.

In the case of `Cc1ccnc2c1C(=O)c1nccc(C)c1C2=O`, the IC50 (A549) is reported as 500 nM, the IC50 (HT-29) is reported as 1000 nM and the IC50 [1] is reported as 1000 nM.

`Cc1ccnc2c1C(=O)c1nccc(N(C)C)c1C2=O` showed an IC50 (A549) of 370 nM, an IC50 (HT-29) of 930 nM and an IC50 [1] of 370 nM.

`CCc1cnc2c(c1)C(=O)c1cc(CC)cnc1C2=O` showed an IC50 (A549) of 450 nM, an IC50 (HT-29) of 1880 nM and an IC50 [1] of 790 nM.

`CCc1c(C)cnc2c1C(=O)c1ncc(C)c(CC)c1C2=O` showed an IC50 (A549) of 3400 nM, an IC50 (HT-29) of 3400 nM and an IC50 [1] of 3400 nM.

`Cc1cnc2c(c1)C(=O)c1nccc(Cl)c1C2=O` showed an IC50 (A549) of 30 nM, an IC50 (HT-29) of 40 nM and an IC50 [1] of 30 nM.

Compound `Cc1cnc2c(c1)C(=O)c1cc(C)cnc1C2=O` has an IC50 (A549) of 210 nM, an IC50 (HT-29) of 500 nM and an IC50 [1] of 210 nM.

Compound `Cc1ccnc2c1C(=O)c1nccc(Cl)c1C2=O` has an IC50 (A549) of 190 nM, an IC50 (HT-29) of 1930 nM and an IC50 [1] of 190 nM.

With `Cc1cnc2c(c1)C(=O)c1ncc(C)cc1C2=O` the IC50 (A549) was 40 nM, the IC50 (HT-29) was 420 nM and the IC50 [1] was 40 nM.

`O=C1c2nccc(-c3ccccc3[N+](=O)[O-])c2C(=O)c2nccc(Cl)c21` gave an IC50 (A549) of 30 nM, an IC50 (HT-29) of 270 nM and an IC50 [1] of 30 nM.

Compound `O=C1c2cccnc2C(=O)c2ncccc21` has an IC50 (A549) of 4800 nM, an IC50 (HT-29) of 5700 nM and an IC50 [1] of 4800 nM.

With `Cc1ccnc2c1C(=O)c1nc3c(cc1C2=O)CCCC3` the IC50 (A549) was 4490 nM, the IC50 (HT-29) was 18000 nM and the IC50 [1] was 18000 nM.

With `COc1cccc2c1C(=O)c1c(O)c3c(c(O)c1C2=O)C[C@@](O)(C(=O)CO)C[C@@H]3O[C@H]1C[C@H](N)[C@H](O)[C@H](C)O1` [DOXORUBICIN] the IC50 (A549) was 10 nM, the IC50 (HT-29) was 90 nM and the IC50 [1] was 30 nM.
